Experiment [1] deals with HDAC (Hela Nuclear Extract). Put plainly: In vitro HDAC fluorescent activity assay (Activity Assay 1). Conditions: read-out: Inhibition of HDAC activity IC50, compounds reduced with DTT prior to analysis.
Procedure: In vitro HDAC assays were performed using a HDAC fluorescent activity assay kit (Biomol, UK) according to the manufacturer's instructions. Compounds were reduced prior to analysis; 1 mM compound was reduced with 30 mM DTT in DMSO overnight at room temperature, protected from light. Reactions were then set up in a 96-well plate. […] Serial dilutions were set up for each compound. Reactions containing Hela extract only and assay buffer only were also set up. 25 μl diluted Fluor de LYS™ substrate (100-fold in assay buffer) was added to each reaction, which were then incubated at 37° C. for 1 hour. The reaction was stopped by addition of 50 μl Fluor de LYS™ Developer (20-fold dilution in assay buffer, plus TSA diluted 100-fold). […] Inhibition of in vitro HDAC activity was determined for mean values of duplicate samples as percentages relative to HeLa extract only reactions. IC50 values were calculated using GraphPad Prism software.
Experiment [2] relates to MCF7 breast, A2780 ovarian and PC3 and LNCAP prostate cancer cells. Put plainly: CyQuant cell proliferation assay (Activity Assay 2). In kind it is cell-based. The note with it: Homo sapiens; cell line not given; read-out: Cell growth inhibition IC50. How it is done:
Typically in this embodiment, said assay is performed using the CyQuant™ assay system (Moelcular Probes, Inc. USA).

For experiment [3], the system named is TNFα secretion from PBMCs. Put plainly: TNF-α immunoassay in LPS-stimulated PBMCs (Activity Assay 3). Conditions: normalized to 10 pg LPS alone (=100.00).
Procedure: TNF-α immunoassays were carried out using the Quantikine® Human TNF-α assay kit (R&D systems, Abingdon UK) according to the manufacturer's instructions. […] Compounds were added 1 hour later in volumes of 100 μl at 6× final concentration. Five hours later, lipopol ysaccharide (LSP, Sigma, Poole, UK) was added in a volume of 10 μl at 60× final concentration plates were mixed and left overnight at 37° C. 5% CO2. Plates were centrifuged and cell supernatant was transferred to a new plate. The Quantikine® assay reagents and standards were prepared according to the manufacturer instructions. The Quantikine® assay plate was prepared by adding 50 μl of assay dilutent RD1F into each well. This was followed by 200 μl of standard or 100 μl of calibrator dilutent plus 100 μl cell supernatant; this was incubated for 2 hours at room temperature (RT). The plate was washed using wash buffer 4 times. After the final wash the plate was tapped on clean paper towel to remove all residual buffer. 200 μl of TNF-α conjugate was added to each well and incubated for 1 hour at RT. The plate was then washed as before. The required amount of substrate solution was prepared by adding equal volumes of colour reagents A and B, protecting from light, 200 μl of this mix was added to each well and incubated for 20 mins at RT, protected from light. 50 μl of stop solution was added to each well in the same order as the substrate solution and the plate was read on a Biorad 680 96 well plate reader (Bio-Rad, Hemel Hempstead, UK) at 450 nm with λ correction at 570 nm. TNF-α levels were determined for mean values of duplicate samples using absorbance in nm, calibration zero values were subtracted from all results to correct for the addition of calibrator diluent in the assay.

The values below come from patent US8247372B2 (University of Southampton, priority 2006, dated 2012).

Broadly, the IC50 is the midpoint of a concentration-inhibition curve. As to `CC(C)C[C@H]1NC(=O)C[C@H]2/C=C/CCSSC[C@@H](NC1=O)C(=O)N[C@H](C(C)C)C(O)CC(=O)O2` (stereo in doubt) [Compound 7C, (E)-(1S,5R,6R,9S,20R)-5-Hydroxy-20-isobutyl-6-isopropyl-2-oxa-11,12-dithia-7,19,22-triaza-bicyclo[7.7.6]docos-15-ene-3,8,18,21-tetraone], the IC50 was 11 nM in experiment [1] and 0.23 nM in experiment [2].

Take `CC(C)[C@H]1NC(=O)[C@H]2CSSCC/C=C/[C@H](CC(=O)N[C@H](Cc3cn(C(=O)OC(C)(C)C)c4ccccc34)C(=O)N2)OC(=O)C[C@@H]1O` [Compound 7B, 3-((E)-(1S,5S,6R,9 S,20R)-5-Hydroxy-6-isopropyl-3,8,18,21-tetraoxo-2-oxa-11,12-dithia-7,19,22-triaza-bicyclo[7.7.6]docos-15-en-20-ylmethyl)-indole-1-carboxylic acid tert-butyl ester]: the IC50 was 436 nM in experiment [1] and 0.65 nM in experiment [2].

For `C[C@H]1NC(=O)C[C@H]2/C=C/CCSSC[C@@H](NC1=O)C(=O)N[C@H](Cc1ccccc1)[C@@H](O)CC(=O)O2` [Compound 7D, (E)-(1S,5S,6R,9S,20R)-6-Benzyl-5-hydroxy-20-methyl-2-oxa-11,12-dithia-7,19,22-triaza-bicyclo[7.7.6]docos-15-ene-3,8,18,21-tetraone], the IC50 was determined as 18 nM in experiment [1] and 55 nM in experiment [2].

For `O=C1C[C@H]2/C=C/CCSSC[C@@H](NC(=O)[C@@H](Cc3ccccc3)N1)C(=O)N[C@H](Cc1ccccc1)[C@@H](O)CC(=O)O2` [Compound 7E, (E)-(1S,5S,6R,9S,20R)-6,20-dibenzyl-5-hydroxy-2-oxa-11,12-dithia-7,19,22-triaza-bicyclo[7.7.6]docos-15-ene-3,8,18,21-tetraone], the half-maximal inhibitory concentration (IC50) in experiment [1] was 30 nM; in experiment [2] it was 3.2 nM.

As to `CC(C)[C@H]1NC(=O)[C@H]2CSSCC/C=C/[C@H](CC(=O)N[C@H](Cc3ccccc3)C(=O)N2)OC(=O)C[C@@H]1O` [Compound 7A], the half-maximal inhibitory concentration (IC50) in experiment [1] was 3.3 nM; in experiment [2], 0.07 nM. Moreover, the “TNFα Secretion (Normalized*)” value in experiment [3] (Cells + 10 pg LPS + 0.025 nM compound) is recorded as 63.90; in experiment [3] (Cells + 10 pg LPS + 0.05 nM compound) it was 58.12; in experiment [3] (Cells + 10 pg LPS + 0.1 nM compound), 45.45; in experiment [3] (Cells + 10 pg LPS + 0.2 nM compound) it was 31.11; in experiment [3] (Cells + 10 pg LPS + 0.4 nM compound), 18.66; in experiment [3] (Cells + 0.025 nM compound, no LPS) it was −0.26. Also, the “TNFα Secretion (Normalized*)” value is on record as −0.06 in experiment [3] (Cells + 0.05 nM compound, no LPS); −0.08 in experiment [3] (Cells + 0.1 nM compound, no LPS); −0.03 in experiment [3] (Cells + 0.2 nM compound, no LPS); 0.13 in experiment [3] (Cells + 0.4 nM compound, no LPS).
